From US8895695B2, “Template-fixed beta-hairpin peptidomimetics with CXCR4 antagonizing activity” (priority 2003, dated 2014) come the findings set out here.

One series concerns the target CXCR4 (Homo sapiens, UniProt P61073). Description: Ca2+-assay method 2 (Flexstation, SDF-1 induced calcium mobilization). Particulars: method 2 (Ex. 54-160), mouse pre-B cell line 300-19 with human CXCR4, 10 nM SDF-1; read-out: IC50 (nM) Ca^2+ assay. More on the design: expressed in transfected cells; host or cells: mouse pre-B cell line 300-19. Type of series: cell-based. A general note: Calcium assays in cells follow changes in intracellular calcium, usually with a dye or a luminescent sensor.

The nature of series [1]: in vitro. Format: in vitro ADME. The conditions noted are these: plasma. The procedure: 405 μl of plasma/albumin solution were placed in a polypropylene (PP) tube and spiked with 45 μl of compound from a 100 μM solution B, derived from 135 μl of PBS and 15 μl of 1 mM peptide in PBS, pH 7.4. 150 μl aliquots were transferred into individual wells of the 10 kDa filter plate (Millipore MAPPB 1010 Biomax membrane). For “0 minutes controls”: 270 μl of PBS were placed in a PP tube and 30 μl of stock solution B was added and vortexed. 150 μl of control solution was placed into one well of the filter plate and serves as “filtered control”.
Further 150 μl of control solution were placed directly into a receiver well (reserved for filtrate) and serve as “not-filtered control”. The entire plate including evaporation lid was incubated for 60 min at 37° C. Plasma samples (rat plasma: Harlan Sera lab UK, human plasma: Blutspendezentrum Zürich) were centrifuged at least for 2 h at 4300 rpm (3500 g) and 15° C. in order to yield 100 μl filtrate. For “serum albumin”-samples (freshly prepared human albumin: Sigma A-4327, rat albumin: Sigma A-6272, all at 40 mg/ml concentration in PBS) approximately 1 hour of centrifugation is sufficient. The filtrates in the receiver PP plate were analysed by LC/MS as followes: Column: Jupiter C18 (Phenomenex), mobile phases: (A) 0.1% formic acid in water and (B) acetonitrile, gradient: 5%-100% (B) in 2 minutes, electrospray ionization, MRM detection (triple quadrupole). The peak areas were determined and triplicate values are averaged. The binding is expressed in percent of the (filtered and not-filtered time point 0 min) control 1 and 2 by: 100−(100*T60/T0). The average from these values is then calculated (see ref. 9 below).

The test system of series [2] is human red blood cells (hRBC). As to the kind of experiment: Hemolysis. Format: cell-based. Put shortly:
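Washed fresh human erythrocytes (20% v/v, about 0.9×10^9 cells/ml final) incubated with peptide at 100 μM for 1 h at 37° C. Supernatant diluted 20-fold and OD540 read. Percent hemolysis relative to 0.1% Triton X-100 in H2O (100%), with PBS alone as 0%.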

Series [3] in a line: in vitro. The conditions noted are these: human.

Bridge positions count the residues as written; N and C are the ends. Square brackets hold non-standard residues; d marks the D form. Peptide text beside a SMILES is read from it. 2Nal = N[C@@H](Cc1ccc2ccccc2c1)C(=O)O; Cit = NC(=O)NCCC[C@H](N)C(=O)O; Dab = NCC[C@H](N)C(=O)O
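Throughout, for GI50: MTT reduction read as absorbance at 595 nm, blank-corrected and expressed as percent growth relative to the time-zero cell reading, triplicate wells per concentration.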

Sequence of CXCR4 (P61073 whole entry): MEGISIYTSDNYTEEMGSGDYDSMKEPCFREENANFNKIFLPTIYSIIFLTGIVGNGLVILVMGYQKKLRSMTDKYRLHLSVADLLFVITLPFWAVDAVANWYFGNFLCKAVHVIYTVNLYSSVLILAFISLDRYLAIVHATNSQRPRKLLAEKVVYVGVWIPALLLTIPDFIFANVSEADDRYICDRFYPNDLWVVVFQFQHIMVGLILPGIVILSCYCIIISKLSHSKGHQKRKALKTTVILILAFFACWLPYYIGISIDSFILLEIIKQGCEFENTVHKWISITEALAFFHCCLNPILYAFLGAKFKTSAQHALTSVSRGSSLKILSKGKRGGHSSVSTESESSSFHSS

What is called IC50 is the concentration at which inhibition is half-maximal. Usually half-life stands for how long it takes for the measured level to halve. The low end stands for rapid decline, the high end for slow decline. The GI50 is the concentration that inhibits growth by half. A high value points to less potent growth inhibition. `N=C(N)NCCC[C@@H]1NC(=O)[C@@H]2CSSC[C@H](NC(=O)[C@H](Cc3ccc4ccccc4c3)NC(=O)[C@H](CCCNC(=N)N)NC(=O)[C@H](CCCNC(=N)N)NC(=O)[C@H]3CCCN3C(=O)CNC1=O)C(=O)N[C@@H](Cc1ccc(O)cc1)C(=O)N[C@@H](CCC(N)=O)C(=O)N[C@@H](CCC(N)=O)C(=O)N1CCC[C@@H]1C(=O)N1CCC[C@H]1C(=O)N[C@@H](Cc1ccc(O)cc1)C(=O)N[C@@H](CCCNC(=N)N)C(=O)N[C@@H](CCCNC(N)=O)C(=O)N2` [Ex. 60] (cyclo(YR[Cit]CRG[dP]RR[2Nal]CYQQ[dP]P); disulfide 4-11): at CXCR4, the IC50 came to 0.18 nM. Besides, the half-life at 10 μM in “in vitro [1]” (human) and in “in vitro [1]” (rat) was greater than 5 h each time. The Hemolysis at 100 μM in series [2] was determined as 0.1%. For the same compound, growth in “in vitro [3]” was halved (GI50 at 48 h) at 62000 nM.

As to `N=C(N)NCCC[C@@H]1NC(=O)[C@@H]2CSSC[C@H](NC(=O)[C@H](Cc3ccc4ccccc4c3)NC(=O)[C@H](CCCNC(=N)N)NC(=O)[C@H](CCCNC(=N)N)NC(=O)[C@H]3CCCN3C(=O)CNC1=O)C(=O)N[C@@H](Cc1ccc(O)cc1)C(=O)N[C@@H](CCC(N)=O)C(=O)N[C@@H](CCC(=O)O)C(=O)N1CCC[C@@H]1C(=O)N1CCC[C@H]1C(=O)N[C@@H](Cc1ccc(O)cc1)C(=O)N[C@@H](CCCNC(=N)N)C(=O)N[C@@H](CCCNC(N)=O)C(=O)N2` [Ex. 61] (cyclo(YR[Cit]CRG[dP]RR[2Nal]CYQE[dP]P); disulfide 4-11), the IC50 at CXCR4 was found to be 4.1 nM. In addition, the half-life at 10 μM in “in vitro [1]” (human) was 4.55 h; in “in vitro [1]” (rat), greater than 5 h. Besides, the Hemolysis at 100 μM in series [2] came to 0.3%. In the series “in vitro [3]”, this compound came in with a GI50 at 48 h greater than 100000 nM.

With `N=C(N)NCCC[C@@H]1NC(=O)[C@@H]2CSSC[C@H](NC(=O)[C@H](Cc3ccc4ccccc4c3)NC(=O)[C@H](CCCNC(=N)N)NC(=O)[C@H](CCCNC(=N)N)NC(=O)[C@H]3CCCN3C(=O)CNC1=O)C(=O)N[C@@H](Cc1ccc(O)cc1)C(=O)N[C@@H](CCC(N)=O)C(=O)N[C@@H](CCCCN)C(=O)N1CCC[C@@H]1C(=O)N1CCC[C@H]1C(=O)N[C@@H](CCC(=O)O)C(=O)N[C@@H](CCCNC(=N)N)C(=O)N[C@@H](CCCNC(N)=O)C(=O)N2` [Ex. 68] (cyclo(ER[Cit]CRG[dP]RR[2Nal]CYQK[dP]P); disulfide 4-11), the half-maximal inhibitory concentration (IC50) on CXCR4 was determined as 1.1 nM. The half-life at 10 μM in the series “in vitro [1]” (human) is 2.12 h; in “in vitro [1]” (rat), 1.35 h. The compound also gave a Hemolysis at 100 μM in series [2] of 0.1%. In “in vitro [3]”, this compound had a GI50 at 48 h greater than 100000 nM.

`N=C(N)NCCC[C@@H]1NC(=O)[C@@H]2CSSC[C@H](NC(=O)[C@H](Cc3ccc4ccccc4c3)NC(=O)[C@H](CCCNC(=N)N)NC(=O)[C@H](CCCNC(=N)N)NC(=O)[C@H]3CCCN3C(=O)CNC1=O)C(=O)N[C@@H](Cc1ccc(O)cc1)C(=O)N[C@@H](CCC(N)=O)C(=O)N[C@@H](CCCCN)C(=O)N1CCC[C@@H]1C(=O)N1CCC[C@H]1C(=O)N[C@@H](Cc1ccc(O)cc1)C(=O)N[C@@H](CCCNC(=N)N)C(=O)N[C@@H](CCC(=O)O)C(=O)N2` [Ex. 75] (cyclo(YRECRG[dP]RR[2Nal]CYQK[dP]P); disulfide 4-11): the IC50 at CXCR4 was 3.5 nM. In addition, the half-life at 10 μM in the series “in vitro [1]” (human) worked out at 3.13 h; in “in vitro [1]” (rat), 2.37 h. The compound further had a Hemolysis at 100 μM in series [2] of 0%. Further, in the series “in vitro [3]”, the GI50 at 48 h is greater than 100000 nM.

As to `N=C(N)NCCC[C@@H]1NC(=O)[C@@H]2CSSC[C@H](NC(=O)[C@H](Cc3ccc4ccccc4c3)NC(=O)[C@H](CCCNC(=N)N)NC(=O)[C@H](CCCNC(=N)N)NC(=O)[C@H]3CCCN3C(=O)CNC1=O)C(=O)N[C@@H](Cc1ccc(O)cc1)C(=O)N[C@@H](CCC(N)=O)C(=O)N[C@@H](CC(=O)O)C(=O)N1CCC[C@@H]1C(=O)N1CCC[C@H]1C(=O)N[C@@H](Cc1ccc(O)cc1)C(=O)N[C@@H](CCCNC(=N)N)C(=O)N[C@@H](CCCNC(N)=O)C(=O)N2` [Ex. 85] (cyclo(YR[Cit]CRG[dP]RR[2Nal]CYQD[dP]P); disulfide 4-11), the half-inhibitory concentration (IC50) at CXCR4 was 2.7 nM. In addition, the half-life at 10 μM is 2.77 h in the series “in vitro [1]” (human) and greater than 5 h in “in vitro [1]” (rat). The compound also gave a Hemolysis at 100 μM in series [2] of 0%. The compound further gave a GI50 at 48 h in “in vitro [3]” of 94000 nM.

Take `N=C(N)NCCC[C@@H]1NC(=O)[C@H](CCCNC(=N)N)NC(=O)[C@H]2CCCN2C(=O)CNC(=O)[C@H](CO)NC(=O)[C@@H]2CSSC[C@H](NC(=O)[C@H](Cc3ccc4ccccc4c3)NC1=O)C(=O)N[C@@H](Cc1ccc(O)cc1)C(=O)N[C@@H](CCC(N)=O)C(=O)N[C@@H](CCCCN)C(=O)N1CCC[C@@H]1C(=O)N1CCC[C@H]1C(=O)N[C@@H](Cc1ccc(O)cc1)C(=O)N[C@@H](CCCNC(=N)N)C(=O)N[C@@H](CCCNC(N)=O)C(=O)N2` [Ex. 101] (cyclo(YR[Cit]CSG[dP]RR[2Nal]CYQK[dP]P); disulfide 4-11): the half-maximal inhibitory concentration (IC50) at CXCR4 turned out to be 1.28 nM. Besides, the half-life at 10 μM in the series “in vitro [1]” (human) is greater than 5 h; in the series “in vitro [1]” (rat) it was 4.12 h. For the same compound, in series [2], the Hemolysis at 100 μM is 0.6%. Further, in “in vitro [3]”, the GI50 at 48 h was determined as 74000 nM.

On to `N=C(N)NCCC[C@@H]1NC(=O)[C@@H]2CSSC[C@H](NC(=O)[C@H](Cc3c[nH]c4ccccc34)NC(=O)[C@H](CCCNC(=N)N)NC(=O)[C@H](CCCNC(=N)N)NC(=O)[C@H]3CCCN3C(=O)CNC1=O)C(=O)N[C@@H](Cc1ccc(O)cc1)C(=O)N[C@@H](CCCNC(N)=O)C(=O)N[C@@H](CC(=O)O)C(=O)N1CCC[C@@H]1C(=O)N1CCC[C@H]1C(=O)N[C@@H](Cc1ccc(O)cc1)C(=O)N[C@@H](CCCNC(=N)N)C(=O)N[C@@H](CO)C(=O)N2` [Ex. 102] (cyclo(YRSCRG[dP]RRWCY[Cit]D[dP]P); disulfide 4-11), for which the 50% inhibitory concentration (IC50) at CXCR4 was 8 nM. Besides, the figures for the half-life at 10 μM in “in vitro [1]” (human) and in “in vitro [1]” (rat) were 4.25 h and 4.08 h, respectively. In series [2], this compound showed a Hemolysis at 100 μM of 0.5%. Also, the GI50 at 48 h in the series “in vitro [3]” came out at 33000 nM.

For the compound `C[C@@H](O)[C@@H]1NC(=O)[C@H](CCCNC(=N)N)NC(=O)[C@H](Cc2ccc(O)cc2)NC(=O)[C@@H]2CCCN2C(=O)[C@H]2CCCN2C(=O)[C@H](CCCCN)NC(=O)[C@H](CCC(N)=O)NC(=O)[C@H](Cc2ccc(O)cc2)NC(=O)[C@@H]2CSSC[C@H](NC1=O)C(=O)N[C@@H](CCCNC(=N)N)C(=O)NCC(=O)N1CCC[C@@H]1C(=O)N[C@@H](CCN)C(=O)N[C@@H](CCCNC(=N)N)C(=O)N[C@@H](Cc1c[nH]c3ccccc13)C(=O)N2` [Ex. 110] (cyclo(YRTCRG[dP][Dab]RWCYQK[dP]P); disulfide 4-11), the half-inhibitory concentration (IC50) on CXCR4 came to 1.7 nM. Moreover, the half-life at 10 μM is 1.92 h in “in vitro [1]” (human) and 4.32 h in “in vitro [1]” (rat). The compound also came in with a Hemolysis at 100 μM in series [2] of 0%. In the series “in vitro [3]”, this compound gave a concentration for 50% growth inhibition (GI50) at 48 h of 48000 nM.

`C[C@@H](O)[C@@H]1NC(=O)[C@H](Cc2c[nH]cn2)NC(=O)[C@H](Cc2ccc(O)cc2)NC(=O)[C@@H]2CCCN2C(=O)[C@H]2CCCN2C(=O)[C@H](CCCCN)NC(=O)[C@H](CCC(N)=O)NC(=O)[C@H](Cc2ccc(O)cc2)NC(=O)[C@@H]2CSSC[C@H](NC1=O)C(=O)N[C@@H](CCCNC(=N)N)C(=O)NCC(=O)N1CCC[C@@H]1C(=O)N[C@@H](CCCNC(=N)N)C(=O)N[C@@H](CCCNC(=N)N)C(=O)N[C@@H](Cc1c[nH]c3ccccc13)C(=O)N2` [Ex. 120] (cyclo(YHTCRG[dP]RRWCYQK[dP]P); disulfide 4-11): the half-life at 10 μM in the series “in vitro [1]” (human) was 0.65 h; in “in vitro [1]” (rat) it was 2.9 h. The compound also showed a Hemolysis at 100 μM in series [2] of 0%. In the series “in vitro [3]”, this compound registered a 50% growth inhibitory concentration (GI50) at 48 h of 78000 nM.
